The target of this test is T1, mitochondrial ATP synthase subunit alpha (α-F1-ATP synthase, ATP5A) (Homo sapiens, UniProt P25705).
T1 construct: gene ATP5F1A; purified recombinant human α-F1-ATP synthase (CusaBio)
Kind of test: DSF Tm increase with purified recombinant α subunit ([…]~[…] CADD522, no Kd); the EC50 is from CETSA in MDA-MB-231 lysate; immunocaptured ATP synthase also inhibited at […]~[…]. Format: binding.

From publication PMC7597410, “Targeting breast cancer metabolism with a novel inhibitor of mitochondrial ATP synthesis” (Oncotarget, 2020) come the findings set out here.

pEC50: −log10 of the molar value.

T1 sequence (P25705 44-553): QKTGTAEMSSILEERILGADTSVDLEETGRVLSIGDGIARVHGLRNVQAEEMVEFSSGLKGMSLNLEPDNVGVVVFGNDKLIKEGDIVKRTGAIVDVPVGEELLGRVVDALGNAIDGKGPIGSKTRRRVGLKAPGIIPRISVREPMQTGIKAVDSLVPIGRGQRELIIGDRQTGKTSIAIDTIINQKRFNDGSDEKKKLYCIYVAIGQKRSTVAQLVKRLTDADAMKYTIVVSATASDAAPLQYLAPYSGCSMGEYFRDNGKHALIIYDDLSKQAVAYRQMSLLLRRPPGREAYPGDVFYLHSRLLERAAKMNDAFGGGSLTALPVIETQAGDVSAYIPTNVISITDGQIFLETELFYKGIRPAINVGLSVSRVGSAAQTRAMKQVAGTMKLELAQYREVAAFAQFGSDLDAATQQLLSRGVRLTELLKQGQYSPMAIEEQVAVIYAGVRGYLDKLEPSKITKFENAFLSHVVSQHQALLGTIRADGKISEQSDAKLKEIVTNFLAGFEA

The pEC50 is −log10 of the EC50, conventionally taken in molar units. For the molecule `O=C(O)C1C2C=CC(C2)C1C(=O)Nc1ccc(Cl)c(Cl)c1` (stereo not shown) [CADD522], the negative logarithm of the EC50 (pEC50) is above 6.85.
